Experimental data reported in patent US7109243B2 (IRM LLC, priority 2003, dated 2006).
pKi: −log10 of the molar value.

How the values were obtained:
Cathepsin K = target: T1, Cathepsin K (Homo sapiens, UniProt P43235); assay: Cathepsin K inhibition assay (fluorogenic peptide substrate); selectivity ratio vs cathepsin S; format: biochemical; settings: ratio of cathepsin K inhibition constant to cathepsin S inhibition constant; Table II
T1 sequence (P43235 115-329): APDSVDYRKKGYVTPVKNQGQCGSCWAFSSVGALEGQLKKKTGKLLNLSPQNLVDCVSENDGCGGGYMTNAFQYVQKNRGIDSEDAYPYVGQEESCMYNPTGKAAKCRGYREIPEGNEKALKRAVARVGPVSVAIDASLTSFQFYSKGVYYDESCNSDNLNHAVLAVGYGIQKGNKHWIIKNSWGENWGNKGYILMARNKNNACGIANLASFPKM
Description: The optimal substrate for cathepsin K, acetyl-lysine-histidine-proline-lysine-amino carbamoyl coumarin, was identified from screening a combinatorial library of fluorogenic peptide substrates (Harris, J. L., B. J. Backes, et al., Proc Natl Acad Sci USA 2000, 97(14), 7754-9). Kinetic measurements are performed in a total reaction volume of 30 μl in 384-well microtiter plates. […] The reactions are initiated by adding the substrate, acetyl-lysine-histidine-proline-lysine-amino carbamoyl coumarin, to a final concentration of 40 μM. The rate of substrate hydrolysis is measured by monitoring the increase in fluorescence at an excitation wavelength of 380 nm and an emission wavelength of 450 nm that results from cleavage of the aniline bond in the substrate by the enzyme. The apparent inhibition constants for the compounds are determined from the enzyme progress curves ([…]. Elrod, et al., Anal Biochem 2000, 286(1), 45-50) and are then used to calculate the inhibition constants for competitive inhibitors. Selectivity for cathepsin S in the presence of cathepsin isozymes was determined by the ratio of the cathepsin isozyme inhibition constant of a compound of the present invention to the cathepsin S inhibition constant of the same compound.

Cathepsin S = Cathepsin S (Homo sapiens, UniProt P25774); assay: Cathepsin S inhibition assay (fluorogenic peptide substrate); format: biochemical; settings: Table II, compounds of Formula I; read-out: Ki Cat. S
Cathepsin S, sequence (P25774 115-331, species assumed): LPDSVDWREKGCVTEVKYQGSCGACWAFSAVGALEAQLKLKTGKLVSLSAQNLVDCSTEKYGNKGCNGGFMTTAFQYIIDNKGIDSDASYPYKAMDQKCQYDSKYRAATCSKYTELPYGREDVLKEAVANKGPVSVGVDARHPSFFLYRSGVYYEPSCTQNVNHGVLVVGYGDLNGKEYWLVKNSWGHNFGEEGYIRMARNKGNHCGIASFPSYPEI
Description: “Inhibition constant”, Ki, is the dissociation constant of the enzyme-inhibitor complex, or the reciprocal of the binding affinity of the inhibitor to the enzyme. […] The inhibited rates are then fit by nonlinear regression to the following equation: […]
The assumption being made for the classical inhibition described above is that the free inhibitor concentration is equal to the total inhibitor concentration.
Kinetic measurements are performed in a total reaction volume of 30 μl in 384-well microtiter plates. […] The reactions are initiated by adding the substrate, acetyl-histidine-proline-valine-lysine-amino carbamoyl coumarin, to a final concentration of 50 μM. The rate of substrate hydrolysis is measured by monitoring the increase in fluorescence at an excitation wavelength of 380 nm and an emission wavelength of 450 nm that results from cleavage of the aniline bond in the substrate by the enzyme.

Row | Structure (SMILES) | Selectivity for Cat. S over Cat. K (Cathepsin K) | pKi (Cathepsin S)
1 | Cc1ccc(C(C)C(=O)N[C@@H](CC2CCCCC2)C(=O)NCCNc2ccc(F)cc2)cc1 (stereo partly drawn) [Compound 309, N-{2-cyclohexyl-1-(S)-[2-(4-fluoro-phenylamino)-ethylcarbamoyl]-ethyl}-2-p-tolyl-propionamide] | ++ (++, >100) | > 7.00
2 | COc1ccc(NCCNC(=O)[C@H](Cc2ccc(Oc3ccc(Cl)cc3)cc2)NC(=O)c2cccc(C)c2)cc1 [Compound 300, (S)-N-{2-[4-(4-Chloro-phenoxy)-phenyl]-1-[2-(4-methoxy-phenylamino)-ethylcarbamoyl]-ethyl}-3-methyl-benzamide] | ++ (++, >100) | > 7.00
3 | COc1cc(OC)nc(Oc2cccc(C(=O)N[C@@H](CC3CCCCC3)C(=O)NCCNc3ccc(OC(F)(F)F)cc3)c2)n1 [Compound 73, N-(S)-{2-cyclohexyl-1-[2-(4-trifluoromethoxy-phenylamino)-ethylcarbamoyl]-ethyl}-3-(4,6-dimethoxy-pyrimidin-2-yloxy)-benzamide] | ++ (++, >100) | > 7.00
4 | COc1ccc(NCCNC(=O)[C@H](CCc2ccccc2)NC(=O)c2ccc(-c3cccc(C(F)(F)F)c3)o2)cc1 [Compound 1, N-((S)-1-(2-(4-methoxyphenylamino)ethylcarbamoyl)-3-phenylpropyl)-5-(3-(trifluoromethyl)phenyl)furan-2-carboxamide] | ++ (++, >100) | > 6.00
5 | O=C(N[C@@H](CC1CCCCC1)C(=O)NCCNc1ccc(OC(F)(F)F)cc1)c1ccc(Cn2cnc3ccccc32)cc1 [Compound 43, 4-Benzoimidazol-1-ylmethyl-N-{2-cyclohexyl-1-(S)-[2-(4-trifluoromethoxy-phenylamino)-ethylcarbamoyl]-ethyl}-benzamide] | + (+, >10) | > 7.00
6 | COc1ccc(NCCNC(=O)[C@H](Cc2ccccc2)NC(=O)c2cnn(-c3ccc(Cl)cc3)c2C(F)(F)F)cc1 [Compound 44, (S)-1-(4-Chloro-phenyl)-5-trifluoromethyl-1H-pyrazole-4-carboxylic acid {1-[2-(4-methoxy-phenylamino)-ethylcarbamoyl]-2-phenyl-ethyl}-amide] | ++ (++, >100) | > 6.00
7 | Cc1cc(C)nc(Nc2ccc(C(=O)N[C@@H](CC3CCCCC3)C(=O)NCCNc3ccc(OC(F)(F)F)cc3)cc2)n1 [Compound 92, N-(S)-{2-cyclohexyl-1-[2-(4-trifluoromethoxy-phenylamino)-ethylcarbamoyl]-ethyl}-4-(4,6-dimethyl-pyrimidin-2-ylamino)-benzamide] | + (+, >10) | > 7.00
8 | O=C(N[C@@H](CC1CCCCC1)C(=O)NCCNc1ccc(OC(F)(F)F)cc1)C1CCCN(c2ncc(Br)cn2)C1 (stereo partly drawn) [Compound 93, 1-(5-Bromo-pyrimidin-2-yl)-piperidine-3-carboxylic acid (S)-{2-cyclohexyl-1-[2-(4-trifluoromethoxy-phenylamino)-ethylcarbamoyl]-ethyl}-amide] | +++ (+++, >1000) | > 6.00
9 | COc1ccc(NCCNC(=O)[C@H](Cc2ccccc2C(F)(F)F)NC(=O)c2cccc(C)c2)cc1 [Compound 239, (S)-N-[1-[2-(4-Methoxy-phenylamino)-ethylcarbamoyl]-2-(2-trifluoromethyl-phenyl)-ethyl]-3-methyl-benzamide] | +++ (+++, >1000) | > 7.00
10 | COc1ccc(NCCNC(=O)[C@H](Cc2ccc(-c3cccc(OC)c3OC)cc2)NC(=O)c2cccc(C)c2)cc1 [Compound 279, (S)-N-{2-(2′,3′-Dimethoxy-biphenyl-4-yl)-1-[2-(4-methoxy-phenylamino)-ethylcarbamoyl]-ethyl}-3-methyl-benzamide] | ++ (++, >100) | > 6.00
11 | C[C@@H](C(=O)N[C@@H](CCC1CCCCC1)C(=O)NCCNc1ccc(OC(F)(F)F)cc1)c1ccccc1 [Compound 13, 4-Cyclohexyl-2-(S)-(2-(R)-phenyl-propionylamino)-N-[2-(4-trifluoromethoxy-phenylamino)-ethyl]-butyramide] | +++ (+++, >1000) | > 7.00
12 | COc1ccc(NCCNC(=O)[C@H](CC2CCCCC2)NC(=O)c2cc(-c3ccc(Cl)cc3)cs2)cc1 [Compound 189, (S)-4-(4-Chloro-phenyl)-thiophene-2-carboxylic acid {2-cyclohexyl-1-[2-(4-methoxy-phenylamino)-ethylcarbamoyl]-ethyl}-amide] | ++ (++, >100) | > 7.00
13 | COc1ccc(NCCNC(=O)C(NC(=O)c2cccc(C)c2)C(C)c2ccccc2)cc1 (stereo not drawn) [Compound 268, threo-N-{1-[2-(4-Methoxy-phenylamino)-ethylcarbamoyl]-2-phenyl-propyl}-3-methyl-benzamide] | ++ (++, >100) | > 6.00
14 | O=C(NCCNc1ccc(F)cc1)[C@H](CC1CCCCC1)NC(=O)C1(c2ccccc2)CC1 [Compound 319, 1-Phenyl-cyclopropanecarboxylic acid (S)-{2-cyclohexyl-1-[2-(4-fluoro-phenylamino)-ethylcarbamoyl]-ethyl}-amide] | ++ (++, >100) | > 7.00
15 | COc1ccc(NCCNC(=O)[C@H](CC2CCCCC2)NC(=O)c2cnn(-c3ccc(OC)cc3)c2C)cc1 [Compound 162, (S)-1-(4-Methoxy-phenyl)-5-methyl-1H-pyrazole-4-carboxylic acid {2-cyclohexyl-1-[2-(4-methoxy-phenylamino)-ethylcarbamoyl]-ethyl}-amide] | + (+, >10) | > 7.00
16 | O=C(N[C@@H](CC1CCCCC1)C(=O)NCCNc1ccc(OC(F)(F)F)cc1)c1ccc(-c2ccc(OC(F)(F)F)cc2)s1 [Compound 207, (S)-5-(4-Trifluoromethoxy-phenyl)-thiophene-2-carboxylic acid {2-cyclohexyl-1-[2-(4-trifluoromethoxy-phenylamino)-ethylcarbamoyl]-ethyl}-amide] | ++ (++, >100) | > 6.00
17 | COc1ccc(NCCNC(=O)[C@H](Cc2ccc(Cl)cc2)NC(=O)c2ccc(-c3cccc(C(F)(F)F)c3)o2)cc1 [Compound 4, N-((S)-1-(2-(4-methoxyphenylamino)ethylcarbamoyl)-2-(4-chlorophenyl)ethyl)-5-(3-(trifluoromethyl)phenyl)furan-2-carboxamide] | +++ (+++, >1000) | > 7.00
18 | COc1ccc(NCCNC(=O)[C@H](Cc2ccccc2)NC(=O)Nc2ccccc2)cc1 [Compound 57, (S)-N-[2-(4-Methoxy-phenylamino)-ethyl]-3-phenyl-2-(3-phenyl-ureido)-propionamide] | + (+, >10) | > 6.00
19 | COc1ccc(NCCNC(=O)[C@H](COCc2ccccc2)NC(=O)c2cccc(C)c2)cc1 [Compound 254, (S)-N-{2-Benzyloxy-1-[2-(4-methoxy-phenylamino)-ethylcarbamoyl]-ethyl}-3-methyl-benzamide] | ++ (++, >100) | > 6.00
20 | COc1ccc(NCCNC(=O)[C@H](CC2CCCCC2)NC(=O)c2cccc(N(C)C)c2)cc1 [Compound 119, (S)-N-{2-Cyclohexyl-1-[2-(4-methoxy-phenylamino)-ethylcarbamoyl]-ethyl}-3-dimethylamino-benzamide] | + (+, >10) | > 7.00
21 | COc1ccc(NCCNC(=O)[C@H](Cc2ccccc2)NC(=O)Nc2cccc3ccccc23)cc1 [Compound 101, (S)-N-[2-(4-Methoxy-phenylamino)-ethyl]-2-(3-naphthalen-1-yl-ureido)-3-phenyl-propionamide] | + (+, >10) | > 6.00
22 | Cc1cccc(-c2ccc(C(=O)N[C@@H](CC3CCCCC3)C(=O)NCCNc3ccc(OC(F)(F)F)cc3)o2)c1 [Compound 51, 5-m-Tolyl-furan-2-carboxylic acid (S)-{2-cyclohexyl-1-[2-(4-trifluoromethoxy-phenylamino)-ethylcarbamoyl]-ethyl}-amide] | +++ (+++, >1000) | > 7.00
23 | O=C(N[C@@H](CC1CCCCC1)C(=O)NCCNc1ccc(F)cc1)c1ccoc1 [Compound 272, Furan-3-carboxylic acid (S)-{2-cyclohexyl-1-[2-(4-fluoro-phenylamino)-ethylcarbamoyl]-ethyl}-amide] | ++ (++, >100) | > 7.00
